Assay results taken from PubChem BioAssay AID1419 (Emory University Molecular Libraries Screening Center, 2008).
Activity calls are given as the source filed them. No rule for the calls is given here.

Test: EBV protein-peptide binding inhibitors, dose response, biochemical, fluorescence polarization (AID 1419)
Settings: cell-free protein-peptide binding, 2 h; for fold change: measured here: P channel fold over control, at 54 µM

Row | SMILES | IC50 | fold change
1 | COc1ccc(NS(=O)(=O)c2ccc(Cl)s2)cn1 | 4.58 µM | 3.24
2 | O=C(COC(=O)c1ccc(NS(=O)(=O)c2cccs2)cc1)NCc1ccco1 | > 54 µM (inactive) | 1.01
3 | C(=N\N1CCOCC1)/c1nc(-c2ccccc2)n2ccccc12 | 26.6 µM | 4.71
4 | CCCN1C(=O)/C(=C\C=C2\N(CC)c3ccccc3C2(C)C)SC1=S | 3.39 µM | 20
5 | O=C1CCNc2ccc(-c3ccccc3)cc21 | < 0.42 µM | 32.7
6 | CCCCOC(=O)Cn1c2ccc(OC)cc2c2nc3ccccc3nc21 | 4.54 µM | 5.84
7 | CC(=O)Nc1ccc(Nc2c3c4c(cccc4n(C)c2=O)C(=O)c2ccccc2-3)cc1 | < 0.42 µM | 9.61
8 | O=C(OCCN1C(=O)c2cccc3c(N4CCOCC4)ccc(c23)C1=O)c1cccc(Cl)c1 | 2.52 µM | 56.6
9 | CC(=O)c1ccc(Nc2c3c(nc4ccccc24)CCCC3)cc1 | > 54 µM (inactive) | 0.95
10 | CCN1CC=C2C(C1)C(c1ccc(Cl)s1)C(C#N)=C(N)C2(C#N)C#N (configuration not stated) | 0.95 µM | 9.28
11 | CCN(CC)c1nc2ccccc2nc1C(C#N)C(=O)NCCc1ccccc1 (configuration not stated) | 1.37 µM | 22
12 | COC(=O)c1cc2c(C)cc3ccc(C)cn3c-2c1C(=O)OC | 9.57 µM | 4.48
13 | Cc1nn(C)c(C)c1CN(C)C(=O)C1c2ccccc2Oc2ccccc21 | 3.77 µM | 4.27
14 | O=C1c2ccccc2-c2onc3ccc(NCc4ccco4)c1c23 | < 0.42 µM | 61.5
15 | O=c1ccc2cc3c4c(c2o1)CCCN4CCC3 | < 0.42 µM | 36.4
16 | COc1ccc(Cc2nnc(NC(=O)Cc3cccs3)s2)cc1OC | > 54 µM (inactive) | 1.15
17 | CN(C)CCCN1C(=O)c2cccc3c([N+](=O)[O-])ccc(c23)C1=O | 18 µM | 2.14
18 | CCOc1cc(/C=N/NC(=O)c2ccc(-c3csc(Nc4ccc(C)cc4)n3)cc2)ccc1OCC(=O)O | 14.8 µM | 1.08
19 | O=C1CCN2C=Nc3cccc4ccc1c2c34 | < 0.42 µM | 171
20 | Nc1c(S(=O)(=O)c2ccccc2)c2nc3ccccc3nc2n1Cc1ccco1 | > 54 µM (inactive) | 1.32
21 | O=c1[nH]c(C(Cl)Cl)nc2sc3c(c12)CCN(Cc1ccccc1)C3 | 11.8 µM | 2

Row | SMILES | IC50 | fold change
22 | N=c1oc2ccc3ccccc3c2cc1-c1nc(-c2ccccc2)cs1 | 4.67 µM | 8.37
23 | CCCn1c(O)c(N=Nc2ccc3ccccc3n2)c2ccccc21 | > 54 µM (inactive) | 1.5
24 | CCNc1cccc2c1C(=O)N(C)C2=O | 0.96 µM | 24.2
25 | O=[N+]([O-])c1ccc2[nH]c(O)c(N=NC(=S)Nc3cccnc3)c2c1 | > 54 µM (inactive) | 0.61
26 | CCN(CC)C(=O)/C(=C\c1ccc(Br)cc1)NC(=O)c1ccccc1OC | 4.67 µM | 1.15
27 | C=CCn1c(O)c(N=NC(=O)CNC(=O)/C=C/c2ccco2)c2ccccc21 | > 54 µM (inactive) | 0.747
28 | CCn1c(SC(C)C(=O)O)nc2sc3c(c2c1=O)CCC3 (configuration not stated) | > 54 µM (inactive) | 1.12
29 | Cc1ccc(S(=O)(=O)c2c(N)n(Cc3ccco3)c3nc4ccccc4nc23)cc1 | > 54 µM (inactive) | 1.41
30 | Cc1cccc(N2C(=O)NC(=O)/C(=C/c3cc4c(cc3[N+](=O)[O-])OCO4)C2=O)c1 | 2.62 µM | 3.71
31 | CCN(CC)c1ccc(N=Cc2c(O)n(CCc3ccc(OC)c(OC)c3)c(=O)[nH]c2=O)cc1 | > 54 µM (inactive) | 5.55
32 | Cn1c(=O)c(N)c2c3c(c(Br)ccc31)C(=O)c1ccccc1-2 | < 0.42 µM | 98.9
33 | CN1C[C@H](CO)C=C2c3cccc4[nH]cc(c34)C[C@H]21 | 12.4 µM | 1.62
34 | COc1ccc(/C=C2\SC(=S)N(CCCC(=O)Nc3ccccn3)C2=O)cc1OC | 8.78 µM | 9.33
35 | COc1ncnc2c1NC1=C(S2)C(=NCCC(=O)O)CC(C)(C)C1 | 0.93 µM | 8.12
36 | O=Cc1cnc(N2CCCCC2)s1 | > 54 µM (inactive) | 1.06
37 | C/C(N)=C(/C#N)C(=O)CSc1nnc(Nc2ccccc2)s1 | > 54 µM (inactive) | 0.95
38 | CN(c1ncc(C(F)(F)F)cc1Cl)N1C(=O)c2cccc(N)c2C1=O | 3.83 µM | 1.88
39 | O=C1C(=Cc2ccc(Br)o2)C(=O)c2ccccc21 | > 54 µM (inactive) | 1.09
40 | COc1ccc(N=C2NC(=O)S/C2=C\c2ccc(N(C)C)cc2)cc1 | 4.75 µM | 3.03
41 | CC(=O)Nc1nc(C)c(-c2csc(Nc3cccc([N+](=O)[O-])c3)n2)s1 | > 54 µM (inactive) | 0.71
42 | Cc1ccc(C)c(-n2c3nc(=O)[nH]c(=O)c-3cc3cc([N+](=O)[O-])ccc32)c1 | 8.3 µM | 2.52

Row | SMILES | IC50 | fold change
43 | CCCCn1c(=O)[nH]c2nc3cc(NC(C)=O)ccc3nc2c1=O | 3.91 µM | 3.87
44 | C=CCn1c(CSc2nc3ccccc3s2)nnc1SCC(=O)NCc1ccco1 | > 54 µM (inactive) | 0.923
45 | O=c1cc(-c2ccccc2)nc2c(-c3ccccc3)c(C(F)(F)F)[nH]n12 | > 54 µM (inactive) | 1.02
46 | Nc1cccc2c1C(=O)N(CC(=O)NC13CC4CC(CC(C4)C1)C3)C2=O | 8.06 µM | 2.22
47 | COCCCNC(=O)c1ccc2c3c(onc13)-c1ccccc1C2=O | < 0.42 µM | 217
48 | Cc1ccc(C)n1-c1cc(S(=O)(=O)N2CCOCC2)ccc1N1CCCC1 | > 54 µM (inactive) | 1.02
49 | O=C(CCN1C(=O)COc2ccccc21)NCc1ccco1 | > 54 µM (inactive) | 1.02
50 | Cc1[nH]c(=O)[nH]c(=O)c1S(=O)(=O)N1CCN(c2ccccc2F)CC1 | > 54 µM (inactive) | 1.04
51 | O=C1CCCC2=C1Sc1ccc(Cl)cc1N2 | 5.79 µM | 2.69
52 | O=C(c1ccccc1)c1ccc(O)cc1O | < 0.42 µM | 48.2
53 | CCOc1ccc(Cn2c3ccc(OC)cc3c3nc4ccccc4nc32)cc1 | 1.15 µM | 6.17
54 | CCOCCCNc1nc2c(C)cccn2c(=O)c1/C=C1\SC(=S)N(C(C)CC)C1=O (configuration not stated) | 13.2 µM | 6.84
55 | Cn1c(SCC(=O)Nc2ccc3nc(SCC(=O)N4CCCC4)sc3c2)nnc1-c1ccc(N)cc1 | 36.4 µM (inactive) | 1.12
56 | CCCCn1c(=O)[nH]c2nc3cc(N)ccc3nc2c1=O | < 0.42 µM | 110
57 | O=C(CSc1ccsc1[N+](=O)[O-])Nc1cccc(F)c1 | > 54 µM (inactive) | 1.11
58 | O=C(O)c1ccccc1/C=N/NC(=O)c1cc(-c2ccco2)nc2ccccc12 | 30.4 µM (inactive) | 1.03
59 | CC1=CC(C#N)(C#N)C(C#N)(C#N)C(c2ccccc2)N1 (configuration not stated) | < 0.42 µM | 10
60 | NC(=S)n1[nH]c(-c2ccc([N+](=O)[O-])cc2)c(N=Nc2cccc([N+](=O)[O-])c2)c1=O | 3.71 µM | 1.14
61 | Cc1cc(=O)oc2c3c4c(cc12)OCCN4CCC3 | 3.95 µM | 3.5
62 | Nc1c(C(=O)NCC2CCCO2)sc2nc3c(c(-c4ccco4)c12)CC/C3=C\c1ccco1 (configuration not stated) | < 0.42 µM | 3.22
63 | CCn1c2ccccc2c2cc(NC(=O)c3coc(=O)c(Br)c3)ccc21 | < 0.42 µM | 21.9

Row | SMILES | IC50 | fold change
64 | COc1ccc(C(=O)Nc2cccc(-c3cc4ccccc4oc3=O)c2)cc1[N+](=O)[O-] | > 54 µM (inactive) | 0.607
65 | Cc1ccc(N2C(=O)C3C(C2=O)C(C(=O)c2ccc(Cl)cc2)N2CCCC32)cc1 (configuration not stated) | > 54 µM (inactive) | 2.44
66 | COc1ccc(-n2c(C)cc(/C=C3/SC(=S)N(C)C3=O)c2C)cc1 | 23.5 µM | 7.53
67 | Cc1nc(NC(=O)c2ccccc2)sc1-c1csc(Nc2ccc(C(=O)O)cc2)n1 | 2.31 µM | 0.97
68 | CC(C)COc1ccc(C(=O)NC(CC(C)C)C(=O)O)cc1 (configuration not stated) | > 54 µM (inactive) | 1.07
69 | COc1ccc(/C=C2\SC(c3ccc(C)cc3)=NC2=O)cc1OC | > 54 µM (inactive) | 8.37
70 | c1ccc(-c2[nH]c(-c3ccccc3)[n+](CC3CO3)c2-c2ccccc2)cc1 (configuration not stated) | > 54 µM (inactive) | 0.99
71 | O=C1CSC(=S)N1/N=C/c1ccc(O)c(O)c1O | 2.61 µM | 1.04
72 | CCCCN1C(=O)/C(=C/C=C2\Oc3ccccc3N2CC)SC1=S | 5.36 µM | 13.9
73 | Cc1c(N2C(=O)c3ccc4c5c(ccc(c35)C2=O)CC4)c(=O)n(-c2ccccc2)n1C | > 54 µM (inactive) | 1.19
74 | COc1ccccc1NC(=O)C(=O)N/N=C/c1ccc([N+](=O)[O-])s1 | > 54 µM (inactive) | 1.09
75 | CCOC(=O)Cc1csc(SCC(=O)Nc2sc3c(c2C(N)=O)CCC3)n1 | > 54 µM (inactive) | 1.09
76 | O=c1cc2oc3cc(O)c(O)cc3c(-c3ccccc3O)c-2cc1O | 5.29 µM | 232
77 | COc1ccc(/C(O)=C/c2nc3ccccc3n(-c3ccccc3)c2=O)cc1 | > 54 µM (inactive) | 17
78 | Cc1ccc(NC(=O)CN2C(=O)S/C(=C/c3ccc(O)c([N+](=O)[O-])c3)C2=O)cc1C | > 54 µM (inactive) | 0.99
79 | CCN(CC)c1ccc(/C=C(/C#N)c2nc3ccccc3[nH]2)c(OC(C)C)c1 | 10.7 µM | 14.3
80 | CCn1c(C)cc(C=C2C(=O)c3ccccc3C2=O)c1C | 16.2 µM | 8.23
81 | CCCCC1=CC2=C(c3ccco3)C(=O)C(C)(OC(=O)c3ccc(OC)cc3)C(=O)C2=CN1Cc1ccccc1 (configuration not stated) | > 54 µM (inactive) | 1.7
